Measured values published in patent US12122764B2, “IKAROS zinc finger family degraders and uses thereof” (Gilead Sciences, Inc., priority 2021, dated 2024).

target: T1, IKZF2 (Homo sapiens, UniProt Q96SW2+Q9UKS7); test: HiBiT protein tagging assay, in vitro IKZF2 degradation (HEK293); format: cell-based; settings: IKZF2-HiBiT reporter Flp-In T-REx HEK293 cells, doxycycline-induced, compound overnight (18-24 hr), normalized to DMSO control
T1 construct: expressed in transfected cells
Method: In vitro degradation of IKZF1 and IKZF2 was measured using HiBiT protein tagging and detection technology (Promega).
HiBiT technology (Promega) was used to develop the quantitative assays to measure the cellular IKZFs level by tagging an 11 amino acid HiBit peptides VSGWRLFKKIS (SEQ ID NO:1) to the protein of interest. Reporter plasmids were generated by fusing a linker sequence (GSSGGSSG; SEQ ID NO:2) followed by the HiBiT tag at the C terminus of IKZF1 and IKZF2. The fusion fragments were subsequently cloned into pcDNA5 pcDNA™5/FRT/TO plasmids (Thermo Fisher, cat #V652020) downstream of the Tetracycline operator. The resulting plasmids were co-transfected with pOG44 Flp-Recombinase Expression Vector (Thermo Fisher, cat #V600520) into Flp-In™ T-REx HEK293 line (Thermo Fisher, cat #R78077) and a stable cell pool was selected by adding 100 μg/ml of Hygromycin (Thermo Fisher, cat #10687010). The reporter cell enabled Tet-On inducible reporter expression from a single copy of the integrated gene.
On Day 1, Cells were grown to ˜80% confluency in TC medium (DMEM Glutamax (Gibco10569), 10% Tet free FBS (Takara 631106), and PenStrep Glutamin (Gibco 10378)) in tissue culture flasks. Doxycycline was then added to a final concentration of 1 μg/ml to induce reporter expression at 37° C. overnight.
On Day 2, 125 nL of serially-diluted solution of testing compounds were dispensed into 384-well white solid assay plates via ECHO acoustic liquid handler. Cells were lifted by 0.25% Trypsin (Gibco 25200) then pelleted by centrifugation (Beckman Avanti J-E) at 500×g for 5 min. Cell pellets were resuspended in TC medium at the concentration of 3e5/mL and 25 μL of cell suspension were added into each well of compound-spotted plates. The plates were returned to a 37° C. incubator overnight (18-24 hr).
On Day 3, assay plates were removed from the TC incubator and 25 μL of Nano-Glo lytic detection system (Promega, cat #N3030) was added to each well. Plates were incubated at r.t. for 3 min with shaking, and luminescence was read using an Envision reader (Perkin Elmer).
All raw data was normalized to DMSO control (final concentration: 0.5%) wells as POC and plotted out for EC50 and Dmax (Maximum degradation at the highest concentration tested in the assay).

T1 sequence (Q9UKS7 1-500 isoform Q9UKS7-2): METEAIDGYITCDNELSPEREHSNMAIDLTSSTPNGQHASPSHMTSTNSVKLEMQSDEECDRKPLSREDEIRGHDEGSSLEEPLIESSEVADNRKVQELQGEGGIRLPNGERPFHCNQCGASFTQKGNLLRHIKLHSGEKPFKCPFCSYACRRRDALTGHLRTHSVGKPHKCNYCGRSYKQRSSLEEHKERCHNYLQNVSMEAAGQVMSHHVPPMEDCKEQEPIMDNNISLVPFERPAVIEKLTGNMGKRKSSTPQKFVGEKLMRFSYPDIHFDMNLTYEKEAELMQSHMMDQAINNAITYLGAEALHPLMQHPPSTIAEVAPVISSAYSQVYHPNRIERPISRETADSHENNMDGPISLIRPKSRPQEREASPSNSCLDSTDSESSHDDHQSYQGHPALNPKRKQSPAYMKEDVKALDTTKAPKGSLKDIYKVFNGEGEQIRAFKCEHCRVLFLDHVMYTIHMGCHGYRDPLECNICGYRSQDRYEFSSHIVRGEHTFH
T1 sequence (Q96SW2 whole entry): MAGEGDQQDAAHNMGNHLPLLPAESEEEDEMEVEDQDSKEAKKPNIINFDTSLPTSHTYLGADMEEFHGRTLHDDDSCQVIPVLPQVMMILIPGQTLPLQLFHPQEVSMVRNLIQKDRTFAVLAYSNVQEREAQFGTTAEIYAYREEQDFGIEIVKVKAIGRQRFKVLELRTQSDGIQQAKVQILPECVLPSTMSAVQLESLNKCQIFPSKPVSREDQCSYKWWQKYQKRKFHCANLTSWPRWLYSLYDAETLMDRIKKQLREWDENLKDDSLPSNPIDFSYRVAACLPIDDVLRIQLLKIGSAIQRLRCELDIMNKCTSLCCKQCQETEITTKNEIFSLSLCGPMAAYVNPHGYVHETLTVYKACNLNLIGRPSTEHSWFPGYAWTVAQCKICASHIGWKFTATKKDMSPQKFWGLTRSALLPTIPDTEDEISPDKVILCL
T1 sequence (Q16531 whole entry partner): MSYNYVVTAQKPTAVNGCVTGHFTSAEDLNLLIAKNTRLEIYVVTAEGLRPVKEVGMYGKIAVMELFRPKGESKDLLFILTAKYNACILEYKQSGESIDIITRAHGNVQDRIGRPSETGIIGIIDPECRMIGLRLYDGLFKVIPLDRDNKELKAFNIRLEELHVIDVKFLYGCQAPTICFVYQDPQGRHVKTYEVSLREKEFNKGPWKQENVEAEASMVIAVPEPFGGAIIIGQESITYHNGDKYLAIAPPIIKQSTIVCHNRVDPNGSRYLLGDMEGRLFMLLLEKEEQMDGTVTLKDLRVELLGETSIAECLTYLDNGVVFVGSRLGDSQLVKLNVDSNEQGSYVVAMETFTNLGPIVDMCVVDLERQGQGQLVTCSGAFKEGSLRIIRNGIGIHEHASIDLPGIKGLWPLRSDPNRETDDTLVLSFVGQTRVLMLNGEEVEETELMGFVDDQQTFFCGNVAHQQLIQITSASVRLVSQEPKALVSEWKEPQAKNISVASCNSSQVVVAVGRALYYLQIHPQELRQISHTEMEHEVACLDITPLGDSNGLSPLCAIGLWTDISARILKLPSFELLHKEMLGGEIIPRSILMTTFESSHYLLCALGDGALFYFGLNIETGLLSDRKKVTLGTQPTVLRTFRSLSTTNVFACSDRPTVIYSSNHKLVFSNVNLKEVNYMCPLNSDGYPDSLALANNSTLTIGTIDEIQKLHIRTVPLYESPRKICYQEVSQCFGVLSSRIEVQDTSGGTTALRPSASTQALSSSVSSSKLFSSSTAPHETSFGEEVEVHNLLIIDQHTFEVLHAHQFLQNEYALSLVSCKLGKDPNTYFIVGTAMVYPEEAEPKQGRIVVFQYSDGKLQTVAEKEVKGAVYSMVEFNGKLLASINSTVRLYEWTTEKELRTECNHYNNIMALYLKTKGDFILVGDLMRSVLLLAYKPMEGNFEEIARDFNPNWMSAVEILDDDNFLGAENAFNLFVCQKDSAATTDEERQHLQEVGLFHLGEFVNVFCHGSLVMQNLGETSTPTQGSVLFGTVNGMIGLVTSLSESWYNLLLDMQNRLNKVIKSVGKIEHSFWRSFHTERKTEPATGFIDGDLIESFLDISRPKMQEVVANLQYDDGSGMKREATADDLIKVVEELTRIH

Compared with O=C1CCC(N2Cc3cc(O[C@@H]4CN(Cc5ccccc5)CC[C@H]4NCC(F)(F)F)ccc3C2=O)C(=O)N1 (relative stereo) [Example 45, 3-(5-(((3,4-trans)-1-benzyl-4-((2,2,2-trifluoroethyl)amino)piperidin-3-yl)oxy)-1-oxoisoindolin-2-yl)piperidine-2,6-dione], O=C1CCC(N2Cc3cc(O[C@@H]4CN(Cc5ccccc5)CC[C@H]4NC(=O)NCc4ccccc4)ccc3C2=O)C(=O)N1 (relative stereo) [Example 55, 1-benzyl-3-((3,4-trans)-1-benzyl-3-((2-(2,6-dioxopiperidin-3-yl)-1-oxoisoindolin-5-yl)oxy)piperidin-4-yl)urea] is higher in “IKZF2 Dmax (maximum degradation at the highest concentration tested)” value: 44% for the first, 91% for the second.

For O=C1CCC(N2Cc3cc(O[C@@H]4CN(Cc5ccccc5)CC[C@H]4N4CC(Oc5ccccc5Cl)C4)ccc3C2=O)C(=O)N1 (relative stereo) [Example 54, 3-(5-(((3,4-trans)-1-benzyl-4-(3-(2-chlorophenoxy)azetidin-1-yl)piperidin-3-yl)oxy)-1-oxoisoindolin-2-yl)piperidine-2,6-dione], the “IKZF2 Dmax (maximum degradation at the highest concentration tested)” value was 94%.

same assay, conditions: IKZF2-HiBiT reporter Flp-In T-REx HEK293 cells, doxycycline-induced, compound overnight (18-24 hr), normalized to DMSO control; read-out: IKZF2 Dmax (maximum degradation at the highest concentration tested)

Compared with O=C1CCC(N2Cc3cc(OC4CN(Cc5ccccc5)CCC4NCCF)ccc3C2=O)C(=O)N1 (racemic) [Example 59], CC(=O)NC1CCN(Cc2ccccc2)CC1Oc1ccc2c(c1)CN(C1CCC(=O)NC1=O)C2=O (stereo not drawn) [Example 48, N-((3,4-trans)-1-benzyl-3-((2-(2,6-dioxopiperidin-3-yl)-1-oxoisoindolin-5-yl)oxy)piperidin-4-yl)acetamide] is lower in Dmax: 86% for the first, 69% for the second.

First: CCNC1CCN(Cc2cccc(-c3ccccc3)c2)CC1Oc1ccc2c(c1)CN(C1CCC(=O)NC1=O)C2=O (racemic) [Example 60]
Second: O=C1CCC(N2Cc3cc(O[C@H]4CN(Cc5ccccc5)CC[C@@H]4NCc4ccccc4)ccc3C2=O)C(=O)N1 (stereo partly drawn) [Example 2a]
The Dmax of the first is lower: 83% for the first, 97% for the second.

Compared with O=C1CCC(N2Cc3cc(OC4CN(Cc5ccccc5)CCC4N(C4CC4)C4CC4)ccc3C2=O)C(=O)N1 (racemic) [Example 61], O=C1CCC(N2Cc3cc(OC4CN(Cc5ccccc5)CCC4NC4CC4)ccc3C2=O)C(=O)N1 (racemic) [Example 63] is higher in Dmax: 82% for the first, 94% for the second.

Going from CN1CC[C@@H](NCc2ccccc2)[C@H](Oc2ccc3c(c2)CN(C2CCC(=O)NC2=O)C3=O)C1 (relative stereo) [Example 1, 3-(5-((trans-4-(benzylamino)-1-methylpiperidin-3-yl)oxy)-1-oxoisoindolin-2-yl)piperidine-2,6-dione] to O=C1CCC(N2Cc3cc(OC4CN(CC(F)F)CCC4NCc4ccccc4)ccc3C2=O)C(=O)N1 (stereo not drawn) [Example 49, 3-(5-(((3,4-trans)-4-(benzylamino)-1-(2,2-difluoroethyl)piperidin-3-yl)oxy)-1-oxoisoindolin-2-yl)piperidine-2,6-dione], the Dmax rises from 53% to 69%.

First: O=C1CCC(N2Cc3cc(O[C@@H]4CN(CC(F)(F)F)CC[C@H]4NCc4ccccc4)ccc3C2=O)C(=O)N1 (relative stereo) [Example 40, 3-(5-((trans-4-(benzylamino)-1-(2,2,2-trifluoroethyl)piperidin-3-yl)oxy)-1-oxoisoindolin-2-yl)piperidine-2,6-dione]
Second: N[C@@H]1CCN(Cc2ccccc2)C[C@H]1Oc1ccc2c(c1)CN(C1CCC(=O)NC1=O)C2=O (relative stereo) [Example 42, 3-(5-((trans-4-amino-1-benzylpiperidin-3-yl)oxy)-1-oxoisoindolin-2-yl)piperidine-2,6-dione]
The Dmax of the first is lower: 57% for the first, 96% for the second.

First: O=C1CCC(N2Cc3cc(O[C@H]4CN(c5ccccc5)C[C@@H]4NCc4ccccc4)ccc3C2=O)C(=O)N1 (stereo partly drawn) [Example 39, 3-(5-(((3S,4S)-4-(benzylamino)-1-phenylpyrrolidin-3-yl)oxy)-1-oxoisoindolin-2-yl)piperidine-2,6-dione]
Second: O=C1CCC(N2Cc3cc(OC4CN(Cc5ccccc5)CCC4Nc4ccccc4)ccc3C2=O)C(=O)N1 (stereo not drawn) [Example 43, 3-(5-(((3,4-trans)-1-benzyl-4-(phenylamino)piperidin-3-yl)oxy)-1-oxoisoindolin-2-yl)piperidine-2,6-dione]
The Dmax of the first is lower: 39% for the first, 48% for the second.

Going from N[C@H]1CCN(Cc2ccccc2)C[C@@H]1Oc1ccc2c(c1)CN(C1CCC(=O)NC1=O)C2=O (stereo partly drawn) [Example 42a] to CS(=O)(=O)NC1CCN(Cc2ccccc2)CC1Oc1ccc2c(c1)CN(C1CCC(=O)NC1=O)C2=O (stereo not drawn) [Example 47, N-((3,4-trans)-1-benzyl-3-((2-(2,6-dioxopiperidin-3-yl)-1-oxoisoindolin-5-yl)oxy)piperidin-4-yl)methanesulfonamide], the Dmax falls from 98% to 62%.

First: O=C1CCC(N2Cc3cc(OC4CN(Cc5ccccc5)CCC4NC(=O)c4ccccc4)ccc3C2=O)C(=O)N1 (stereo not drawn) [Example 44, N-((3,4-trans)-1-benzyl-3-((2-(2,6-dioxopiperidin-3-yl)-1-oxoisoindolin-5-yl)oxy)piperidin-4-yl)benzamide]
Second: CCN[C@H]1CCN(Cc2ccc(F)cc2)C[C@@H]1Oc1ccc2c(c1)CN(C1CCC(=O)NC1=O)C2=O (stereo partly drawn) [Example 64]
The Dmax of the first is lower: 79% for the first, 98% for the second.

First: CC(C)N[C@H]1CCN(Cc2nccs2)C[C@@H]1Oc1ccc2c(c1)CN(C1CCC(=O)NC1=O)C2=O (stereo partly drawn) [Example 62]
Second: CC(C)N[C@H]1CCN(Cc2ncco2)C[C@@H]1Oc1ccc2c(c1)CN(C1CCC(=O)NC1=O)C2=O (stereo partly drawn) [Example 67]
The Dmax of the first is higher: 103% for the first, 64% for the second.

Compared with CCN(CC)[C@H]1CCN(Cc2ccc(F)cc2)C[C@@H]1Oc1ccc2c(c1)CN(C1CCC(=O)NC1=O)C2=O (stereo partly drawn) [Example 65], CC(C)N[C@H]1CCN(Cc2ccn(C)n2)C[C@@H]1Oc1ccc2c(c1)CN(C1CCC(=O)NC1=O)C2=O (stereo partly drawn) [Example 66] is lower in Dmax: 99% for the first, 34% for the second.

Work on CC(C)N[C@H]1CCN(Cc2cnccn2)C[C@@H]1Oc1ccc2c(c1)CN(C1CCC(=O)NC1=O)C2=O (stereo partly drawn) [Example 68] yielded a Dmax of 74%.
